Laboratory results reported in ChEMBL document CHEMBL5370643, “Discovery of MK-1468: A Potent, Kinome-Selective, Brain-Penetrant Amidoisoquinoline LRRK2 Inhibitor for the Potential Treatment of Parkinson's Disease” (J Med Chem, 2023).

Columns and labels:
rat Mdrl1 P-gp = assay: Efflux ratio of apparent permeability across basolateral to apical over apical to basolateral side in MDCK cells transfected with rat Mdrl1 P-gp incubated for 3 hrs by LC-MS/MS analysis; details: dog, MDCK-MDR1
[1] = Toxicity in Wistar-Han rat assessed as tolerance at 50 to 300 mg/kg, qd; format: organism-based; details: in vivo, dose 50-300 mg/kg
[2] = Cardiotoxicity in guinea pig assessed as increase in QTc interval at 20 to 50 mg/kg, iv administered continuously for 20 min by ECG analysis; format: toxicity, organism-based, Cavia porcellus; details: in vivo, dose 20-50 mg/kg
[3] = Oral bioavailability in Beagle dog at 1 mg/kg measured after 24 hrs by LC-MS/MS analysis; format: ADME, organism-based, Canis lupus familiaris; details: in vivo
[4] = Intrinsic clearance in rhesus monkey at 1 mg/kg, iv measured after 24 hrs by LC-MS/MS analysis; format: ADME, organism-based, Macaca mulatta; details: in vivo
[5] = target: Sodium channel protein type 5 subunit alpha (Homo sapiens, UniProt Q14524); assay: (§1) Inhibition of human Nav1.5 expressed in HEK293 cells by QPatch voltage clamp assay; format: cell-based
Nav1.5 = Nav1.5 (Homo sapiens, UniProt Q14524); assay: as §1; format: cell-based; details: human, HEK293 cells expressing human Nav1.5
[6] = Intrinsic clearance in Beagle dog at […], iv measured after 24 hrs by LC-MS/MS analysis; format: ADME, organism-based, Canis lupus familiaris; details: in vivo, dose 0.25 mg/kg
[7] = MRT in Wistar-Han rat at 2 mg/kg, iv measured after 24 hrs by LC-MS/MS analysis; format: ADME, organism-based; details: in vivo
[8] = Total clearance in rhesus monkey at 1 mg/kg, iv measured after 24 hrs by LC-MS/MS analysis; format: ADME, organism-based, Macaca mulatta; details: in vivo
[9] = target: MAP/microtubule affinity-regulating kinase 3 (Homo sapiens, UniProt P27448); assay: Inhibition of recombinant human full length MARK3 expressed in insect cells using CHKtide as substrate preincubated with compound for 15 mins followed by substrate addition and measured after 15 mins in the presence of ATP by scintillation based radiometric LeadHunter assay
[10] = AUC in Wistar-Han rat at 300 mg/kg by LC-MS/MS analysis; format: ADME, organism-based; parameters: dose 300 mg/kg; details: in vivo
[11] = MRT in rhesus monkey at 1 mg/kg, iv measured after 24 hrs by LC-MS/MS analysis; format: ADME, organism-based, Macaca mulatta; details: in vivo
[12] = target: KCNQ1/KCNE1 (IKs, Kv7.1/MinK) (Homo sapiens, UniProt P15382+P51787); assay: Inhibition of human KCNQ1/KCNE1 expressed in HEK293 cells at 30 uM by QPatch voltage clamp assay relative to control; format: cell-based; details: HEK293 cells expressing human KCNQ1/KCNE1
[13] = Intrinsic clearance in Wistar-Han rat at 2 mg/kg, iv measured after 24 hrs by LC-MS/MS analysis; format: ADME, organism-based; details: in vivo
[14] = target: Leucine-rich repeat serine/threonine-protein kinase 2 (Homo sapiens) (UniProt Q5S007); assay: Inhibition of LRRK2 in human PBMC using LRRKtide peptide as substrate assessed as Ser935 dephosphorylation preincubated with compound for 15 mins followed by substrate addition and measured after 90 mins in presence of ATP by TR-FRET assay; format: cell-based; details: time 105.0 min
[15] = Unbound brain-to-plasma concentration ratio in iv dosed Wistar-Han rat administered as cassette dose by LC-MS/MS analysis; format: ADME, organism-based; details: read-out: K(p,uu,brain)
[16] = target: Voltage-dependent L-type calcium channel subunit alpha-1C (Homo sapiens, UniProt Q13936); assay: Inhibition of human Cav1.2
[17] = Total clearance in Wistar-Han rat at 2 mg/kg, iv measured after 24 hrs by LC-MS/MS analysis; format: ADME, organism-based; details: in vivo
[18] = Cardiotoxicity in guinea pig assessed as increase in PR interval at 20 to 50 mg/kg, iv administered continuously for 20 min by ECG analysis; format: toxicity, organism-based, Cavia porcellus; details: in vivo, dose 20-50 mg/kg
[19] = Lipophilicity, logD of compound at pH 7 by HT-HPLC/DAD analysis; format: physicochemical; details: buffer
rat Mdr1a P-gp = assay: Apparent permeability across apical to basolateral side in LLC-PK1 cells transfected with rat Mdr1a P-gp incubated for 3 hrs by LC-MS/MS analysis; details: pig
[20] = Drug metabolism in dog assessed as amide hydrolysis mediated metabolite formation by MetID analysis; format: ADME, Canis lupus familiaris
mouse BCRP = assay: Efflux ratio of apparent permeability across basolateral to apical over apical to basolateral side in MDCK-II cells transfected with mouse BCRP incubated for 3 hrs by LC-MS/MS analysis; details: dog
[21] = Cardiotoxicity in guinea pig assessed as increase in QRS interval at 20 to 50 mg/kg, iv administered continuously for 20 min by ECG analysis; format: toxicity, organism-based, Cavia porcellus; details: in vivo, dose 20-50 mg/kg
[22] = Oral bioavailability in rhesus monkey at 2 mg/kg measured after 24 hrs by LC-MS/MS analysis; format: ADME, organism-based, Macaca mulatta; details: in vivo
[23] = MRT in Beagle dog at […], iv measured after 24 hrs by LC-MS/MS analysis; format: ADME, organism-based, Canis lupus familiaris; details: in vivo, dose 0.25 mg/kg
[24] = target: Voltage-gated inwardly rectifying potassium channel KCNH2 (Homo sapiens, UniProt Q12809); assay: (§2) Inhibition of hERG expressed in CHO cells by QPatch voltage clamp assay
hERG = hERG (Homo sapiens, UniProt Q12809); assay: as §2; details: human, CHO cells expressing hERG
[25] = AUC in Wistar-Han rat at 50 mg/kg by LC-MS/MS analysis; format: ADME, organism-based; parameters: dose 50 mg/kg; details: in vivo
[26] = Oral bioavailability in Wistar-Han rat at 5 mg/kg measured after 24 hrs by LC-MS/MS analysis; format: ADME, organism-based; details: in vivo
[27] = Total clearance in Beagle dog at […], iv measured after 24 hrs by LC-MS/MS analysis; format: ADME, organism-based, Canis lupus familiaris; details: in vivo, dose 0.25 mg/kg
[28] = target: Leucine-rich repeat serine/threonine-protein kinase 2 (Homo sapiens, UniProt Q5S007, G2019S); assay: Inhibition of recombinant N-terminal GST-fused LRRK2 […] mutant (970 to 2527 residues) (unknown origin) using LRRKtide peptide as substrate assessed as inhibition of substrate phosphorylation preincubated with compound for 15 mins followed by substrate addition and measured after 90 mins in presence of ATP by TR-FRET assay
Chain of Leucine-rich repeat serine/threonine-protein kinase 2 (Q5S007 whole entry G2019S, the tested form may be a part): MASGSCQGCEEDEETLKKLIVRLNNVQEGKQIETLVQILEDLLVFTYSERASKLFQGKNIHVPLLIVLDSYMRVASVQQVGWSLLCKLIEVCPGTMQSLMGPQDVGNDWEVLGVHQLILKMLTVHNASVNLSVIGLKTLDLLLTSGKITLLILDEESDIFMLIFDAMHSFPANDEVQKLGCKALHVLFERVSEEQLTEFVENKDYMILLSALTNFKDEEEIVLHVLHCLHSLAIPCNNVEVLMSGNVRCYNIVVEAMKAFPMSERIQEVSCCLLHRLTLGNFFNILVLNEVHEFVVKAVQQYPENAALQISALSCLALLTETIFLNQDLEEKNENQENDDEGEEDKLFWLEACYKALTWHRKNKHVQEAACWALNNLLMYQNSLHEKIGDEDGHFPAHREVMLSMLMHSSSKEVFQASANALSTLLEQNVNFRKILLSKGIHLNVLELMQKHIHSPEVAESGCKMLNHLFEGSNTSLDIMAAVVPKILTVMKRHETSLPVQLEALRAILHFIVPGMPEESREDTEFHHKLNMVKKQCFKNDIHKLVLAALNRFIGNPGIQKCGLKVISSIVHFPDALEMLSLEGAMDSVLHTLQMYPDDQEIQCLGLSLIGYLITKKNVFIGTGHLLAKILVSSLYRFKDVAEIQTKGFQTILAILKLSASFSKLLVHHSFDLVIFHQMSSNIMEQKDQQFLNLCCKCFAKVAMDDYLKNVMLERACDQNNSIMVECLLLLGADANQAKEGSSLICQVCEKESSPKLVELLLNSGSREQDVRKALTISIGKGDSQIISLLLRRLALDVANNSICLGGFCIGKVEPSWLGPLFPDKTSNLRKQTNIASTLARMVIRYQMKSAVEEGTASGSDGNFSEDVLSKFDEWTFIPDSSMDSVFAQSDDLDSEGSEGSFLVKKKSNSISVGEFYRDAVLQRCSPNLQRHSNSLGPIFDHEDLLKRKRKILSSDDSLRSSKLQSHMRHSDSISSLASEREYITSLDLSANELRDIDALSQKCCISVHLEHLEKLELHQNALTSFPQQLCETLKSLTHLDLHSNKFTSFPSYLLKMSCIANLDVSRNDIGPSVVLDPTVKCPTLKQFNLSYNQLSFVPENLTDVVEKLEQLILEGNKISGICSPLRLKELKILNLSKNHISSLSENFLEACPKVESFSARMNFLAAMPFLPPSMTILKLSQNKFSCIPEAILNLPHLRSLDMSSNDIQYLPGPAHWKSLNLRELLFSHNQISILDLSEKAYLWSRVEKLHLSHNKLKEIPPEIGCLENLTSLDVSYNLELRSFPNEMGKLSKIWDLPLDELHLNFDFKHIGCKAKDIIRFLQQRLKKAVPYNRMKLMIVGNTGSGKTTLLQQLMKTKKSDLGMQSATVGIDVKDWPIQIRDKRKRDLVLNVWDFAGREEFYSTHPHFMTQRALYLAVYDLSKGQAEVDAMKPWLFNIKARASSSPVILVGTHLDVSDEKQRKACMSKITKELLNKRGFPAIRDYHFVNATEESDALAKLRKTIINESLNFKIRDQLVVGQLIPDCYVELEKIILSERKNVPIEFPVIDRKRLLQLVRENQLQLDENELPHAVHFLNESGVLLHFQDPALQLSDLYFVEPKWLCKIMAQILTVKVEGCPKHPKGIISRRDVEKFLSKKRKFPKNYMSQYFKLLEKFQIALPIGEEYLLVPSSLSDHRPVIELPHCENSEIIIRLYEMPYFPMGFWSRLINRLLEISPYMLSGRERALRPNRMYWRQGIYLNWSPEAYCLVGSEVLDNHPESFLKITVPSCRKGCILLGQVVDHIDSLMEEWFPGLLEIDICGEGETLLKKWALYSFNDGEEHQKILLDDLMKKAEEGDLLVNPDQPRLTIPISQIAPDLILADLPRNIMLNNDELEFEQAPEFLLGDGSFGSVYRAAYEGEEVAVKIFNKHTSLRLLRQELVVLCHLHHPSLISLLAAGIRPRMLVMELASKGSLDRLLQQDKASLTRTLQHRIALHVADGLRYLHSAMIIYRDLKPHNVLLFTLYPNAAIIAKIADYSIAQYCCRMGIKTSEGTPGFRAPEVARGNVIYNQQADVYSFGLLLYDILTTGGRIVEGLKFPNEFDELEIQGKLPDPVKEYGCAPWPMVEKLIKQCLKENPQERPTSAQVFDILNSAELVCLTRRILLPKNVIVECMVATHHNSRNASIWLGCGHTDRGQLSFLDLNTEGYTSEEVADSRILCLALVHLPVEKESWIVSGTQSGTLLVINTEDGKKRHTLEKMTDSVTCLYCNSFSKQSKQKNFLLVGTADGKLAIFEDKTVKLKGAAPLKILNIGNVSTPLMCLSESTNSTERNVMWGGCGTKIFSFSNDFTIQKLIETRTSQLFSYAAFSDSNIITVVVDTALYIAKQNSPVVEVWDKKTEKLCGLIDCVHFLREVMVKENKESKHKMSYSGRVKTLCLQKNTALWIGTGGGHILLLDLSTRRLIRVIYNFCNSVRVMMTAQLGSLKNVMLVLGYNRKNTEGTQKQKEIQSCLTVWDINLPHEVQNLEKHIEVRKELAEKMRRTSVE

Chain of KCNQ1/KCNE1 (IKs, Kv7.1/MinK) (P51787 whole entry): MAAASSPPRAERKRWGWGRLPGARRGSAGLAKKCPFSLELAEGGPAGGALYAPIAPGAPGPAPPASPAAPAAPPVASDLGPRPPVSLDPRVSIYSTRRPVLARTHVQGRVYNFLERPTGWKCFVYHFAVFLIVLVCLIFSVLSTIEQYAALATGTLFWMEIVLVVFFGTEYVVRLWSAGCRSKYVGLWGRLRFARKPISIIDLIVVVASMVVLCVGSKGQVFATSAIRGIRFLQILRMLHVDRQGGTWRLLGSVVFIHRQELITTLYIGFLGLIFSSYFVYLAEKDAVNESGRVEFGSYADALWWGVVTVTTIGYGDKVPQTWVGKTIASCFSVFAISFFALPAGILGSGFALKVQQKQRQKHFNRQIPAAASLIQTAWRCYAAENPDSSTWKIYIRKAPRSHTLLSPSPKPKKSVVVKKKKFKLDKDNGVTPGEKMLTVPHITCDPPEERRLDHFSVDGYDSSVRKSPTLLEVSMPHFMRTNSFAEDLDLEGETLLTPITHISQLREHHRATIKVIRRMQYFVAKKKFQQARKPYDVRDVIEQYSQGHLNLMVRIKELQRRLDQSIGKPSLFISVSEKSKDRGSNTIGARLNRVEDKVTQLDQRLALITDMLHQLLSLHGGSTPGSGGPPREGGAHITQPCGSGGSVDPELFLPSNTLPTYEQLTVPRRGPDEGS
Chain of Leucine-rich repeat serine/threonine-protein kinase 2 (Homo sapiens) (Q5S007 whole entry): as the sequence (Q5S007 whole entry G2019S, the tested form may be a part) above, with S2019G counted along it
Chain of MAP/microtubule affinity-regulating kinase 3 (P27448 whole entry): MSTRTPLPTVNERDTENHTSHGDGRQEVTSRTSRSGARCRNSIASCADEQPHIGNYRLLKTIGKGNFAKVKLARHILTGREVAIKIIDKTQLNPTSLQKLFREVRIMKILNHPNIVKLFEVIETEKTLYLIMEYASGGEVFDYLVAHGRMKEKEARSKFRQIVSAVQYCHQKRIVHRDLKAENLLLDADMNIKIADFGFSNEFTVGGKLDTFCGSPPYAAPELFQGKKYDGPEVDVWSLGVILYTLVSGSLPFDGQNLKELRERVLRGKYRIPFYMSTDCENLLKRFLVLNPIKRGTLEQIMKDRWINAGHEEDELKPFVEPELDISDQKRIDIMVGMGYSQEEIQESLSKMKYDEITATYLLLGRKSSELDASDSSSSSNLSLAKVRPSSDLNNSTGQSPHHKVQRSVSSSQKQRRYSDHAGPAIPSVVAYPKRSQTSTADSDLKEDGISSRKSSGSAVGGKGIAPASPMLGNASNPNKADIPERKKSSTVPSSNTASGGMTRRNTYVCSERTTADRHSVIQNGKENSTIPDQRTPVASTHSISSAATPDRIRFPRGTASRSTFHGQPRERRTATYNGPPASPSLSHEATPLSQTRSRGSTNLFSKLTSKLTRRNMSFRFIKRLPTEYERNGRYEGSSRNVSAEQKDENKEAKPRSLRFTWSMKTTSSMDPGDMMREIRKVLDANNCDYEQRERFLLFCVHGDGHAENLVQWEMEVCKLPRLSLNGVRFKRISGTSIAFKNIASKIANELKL

efflux ratio at 3 h (rat Mdrl1 P-gp): 1.5 | bioavailability [3]: 81% | CL [4]: 341 mL/min/kg | CL [6]: 341 mL/min/kg | MRT [7]: 9 h | clearance [8]: 13 mL/min/kg | IC50 [9]: 29 nM | AUC [10]: 458 µM·h | MRT [11]: 10 h | inhibition at 30 µM [12]: 15% | CL [13]: 271 mL/min/kg | fIC50 [14]: 2.8 nM | Kp uu [15]: 0.6 | clearance [17]: 11 mL/min/kg | logD [19]: 3 | Papp A→B at 3 h (rat Mdr1a P-gp): 30 ×10⁻⁶ cm/s | Drug metabolism [20]: Metabolite_Notdetected | efflux ratio at 3 h (mouse BCRP): 1.1 | bioavailability [22]: 21% | MRT at 24 h [23]: 33 h | AUC [25]: 111 µM·h | bioavailability [26]: 100% | clearance at 24 h [27]: 9 mL/min/kg | IC50 [28]: 3 nM
Compound: C[C@@]1(N2CCC(c3cc4cc(NC(=O)C5CC56CC6)ncc4cc3Cl)CC2)COC[C@@H]1O (stereo partly drawn)
Activity [1]: Non-Toxic | Activity [2]: Toxic | IC50 [5]: 28000 nM | IC20 (Nav1.5): 10000 nM | inhibition (INH) [16]: Not Active | Activity [18]: Toxic | Activity [21]: Toxic | IC50 [24]: 3700 nM | IC20 (hERG): 1300 nM
